The values below come from publication PMC2717426, “The effect of exogenous glucagon-like peptide-1 on the glycaemic response to small intestinal nutrient in the critically ill: a randomised double-blind placebo-controlled cross over study” (Critical Care, 2009).

For data set [1] the following is noted: GLP-1 infusion at 1.2 pmol/kg/min; postoperative patients with type 2 diabetes; cited from earlier work. An excerpt: Hyperglycaemia in critically ill patients, not previously known to have diabetes, is associated with poorer outcomes than in patients with pre-existing diabetes. […] Insulin infusions were ceased two hours before the commencement of the study to ensure clearance of exogenous insulin. Given t ...

Data set [2] can be described thus: Tolerability of the study infusion. The format is in vivo, critically ill patients. The conditions noted are these: GLP-1 1.2 pmol/kg/min i.v. over 270 minutes; all 7 patients. An excerpt: (§1) Patients were studied on two consecutive days, in which they received intravenous GLP-1 or placebo in a randomised, double-blind fashion. Twelve hours prior to the study, a naso-duodenal feeding catheter was inserted and confirmed via abdominal x-ray. On each study day enteral feeding was ceased at least four hours prior to the commencement of the study. Exogenous insulin (Actrapid, Novo-Nordisk, Copenhagen, Denmark) infusion was ceased at least two hours before the commencement of the study drug. Patient weight was provided by a relative and/or estimated by a dietician. […] The study investigators were blinded to each infusion, which were concealed in a glass bottle covered by black plastic. […] At t = 30 minute Ensure® (Abbott, Melbourne, Australia), a mixed nutrient liquid (64% carbohydrate, 1 kcal/ml), was delivered continuously into the small intestine at a rate of 1.5 ml/min for four hours (i.e. t = 30 to 270 min).

A short description of data set [3]: Total plasma GLP-1 concentration (radioimmunoassay) during GLP-1 infusion. The format is in vivo, critically ill patients.
From the text: as §1
(§2) Blood glucose was measured at the bedside using a portable glucometer (Medisense Optimum, Abbott, Melbourne, Australia). Blood was collected, separated by centrifugation and the resulting plasma was stored at -70° until assayed for hormone concentrations. Plasma insulin was measured by ELISA (Diagnostics Systems Laboratories, Webster, Texas, USA) with an inter-assay coefficient of variation (CV) of 6.2%.
(§3) Data are presented as mean ± standard error of the mean. Area under the curve (AUC) was calculated using the trapezoidal rule. […] The ratios of insulin/glucose were calculated, as described previously. Statistical analyses were performed using SPSS (Version 15.0, Chicago, Illinois, USA). Distribution and sensitivity analysis, using nonparametric analyses, allowed parametric testing of data. The difference between intervention and placebo was assessed using paired samples; Student's paired t-test and repeated measures analysis of variance. Data were evaluated for potential carry over effect. The null hypothesis was rejected at the 0.05 significance.

A short description of data set [4]: Plasma glucagon concentration (radioimmunoassay) during GLP-1 infusion. The format is in vivo, critically ill patients. Conditions: GLP-1 1.2 pmol/kg/min i.v.; trapezoidal rule; mean ± SEM, n = 7.
Data set [5] is described as follows: Plasma insulin (ELISA) and insulin/glucose ratio during GLP-1 infusion. Format: in vivo, critically ill patients. Conditions: GLP-1 1.2 pmol/kg/min i.v., mean ± SEM, n = 7. From the text:
Patients were studied on two consecutive days, in which they received intravenous GLP-1 or placebo in a randomised, double-blind fashion. Twelve hours prior to the study, a naso-duodenal feeding catheter was inserted and confirmed via abdominal x-ray. On each study day enteral feeding was ceased at least four hours prior to the commencement of the study. Exogenous insulin (Actrapid, Novo-Nordisk, Copenhagen, Denmark) infusion was ceased at least two hours before the commencement of the study drug. Patient weight was provided by a relative and/or estimated by a dietician. […] The study investigators were blinded to each infusion, which were concealed in a glass bottle covered by black plastic. […]
Blood glucose was measured at the bedside using a portable glucometer (Medisense Optimum, Abbott, Melbourne, Australia). […] Plasma insulin was measured by ELISA (Diagnostics Systems Laboratories, Webster, Texas, USA) with an inter-assay coefficient of variation (CV) of 6.2%.
Data are presented as mean ± standard error of the mean. Area under the curve (AUC) was calculated using the trapezoidal rule. […] The ratios of insulin/glucose were calculated, as described previously. […] The difference between intervention and placebo was assessed using paired samples; Student's paired t-test and repeated measures analysis of variance. Data were evaluated for potential carry over effect. […]
A general note: ELISA stands for enzyme-linked immunosorbent assay.

The nature of data set [6]: Blood glucose response to small intestinal nutrient infusion during intravenous GLP-1 infusion (bedside glucometer). Format: in vivo, critically ill patients. The method, then: Seven critically ill adult patients (four males, three females, age range 28 to 76 years), predicted to remain mechanically ventilated for more than 48 hours, were studied. Exclusion criteria included pregnancy, pre-existing diabetes, contraindication to enteral feeding or post-pyloric catheter insertion, and previous surgery on the oesophagus, stomach or duodenum.
as §1, §2, §3

The mark [7] stands for this setting: GLP-1 1.2 pmol/kg/min i.v., total GLP-1, radioimmunoassay, mean ± SEM, n = 7.
The mark [8] stands for this setting: GLP-1 1.2 pmol/kg/min i.v. t = 0-270 min, intra-duodenal Ensure 1.5 kcal/min t = 30-270 min, mean ± SEM, n = 7.

As for GLP-1-(7–36) amide, in data set [1], the “Effect on fasting glycaemia” value is listed as “achieved fasting normoglycaemia” and the Tolerability result is on record as “well tolerated”. In data set [2], the “Tolerability of the study” value is “well tolerated”. Further, the “Plasma GLP-1 AUC0–270 min” value in data set [3] (GLP-1 1.2 pmol/kg/min i.v. for 270 min, trapezoidal rule, mean ± SEM, n = 7) was 31,659 ± 4203 pmol/l min. In addition, the “Time after which steady state plasma GLP-1 concentrations were achieved” value in data set [3] (GLP-1 1.2 pmol/kg/min i.v. infusion) was 30 min. Further, in data set [3] (setting [7]), the “Plasma GLP-1 concentration, t = 30 min” value was 124 ± 15 pmol/L and the “Plasma GLP-1 concentration, t = 90 min” value was determined as 131 ± 13 pmol/L. Also, the “Plasma glucagon AUC0–270 minutes” value in data set [4] is given as 22,786 ± 6040 pmol/l min. Also, the “Plasma insulin AUC0–270 min” value in data set [5] (entire study period, trapezoidal rule) is 16,203 ± 5193 mU/l min. Also, in data set [5] (intra-duodenal nutrient, ELISA), the “Plasma insulin, t = 270 min” value amounted to 79 ± 21 mU/l. For the same substance, the “Effect on blood glucose prior to nutrient infusion, t = 30 min” value in data set [6] (GLP-1 1.2 pmol/kg/min i.v. from t = 0, before start of small intestinal nutrient, vs placebo) was “no effect”. In data set [6] (setting [8]), the “Blood glucose concentration, t = 180 min” value came out at 9.3 ± 0.6 mmol/L and the Peak blood glucose is 10.1 ± 0.7 mmol/L. In addition, in data set [6] (GLP-1 1.2 pmol/kg/min i.v., intra-duodenal Ensure 1.5 kcal/min t = 30-270 min, trapezoidal rule, mean ± SEM, n = 7), the “Overall glycaemic response, blood glucose AUC30–270 min” value worked out at 2077 ± 144 mmol·min/L. Also, the “Baseline blood glucose concentration, t = 0 min” value in data set [6] (GLP-1 study day, prior to infusion, arterial blood, glucometer, mean ± SEM, n = 7) is 7.5 ± 0.4 mmol/L.
